The record followed here is patent US9617577B2, “Bacillus pumilus bilirubin oxidase and applications thereof” (CENTRE NATIONAL DE LA RECHERCHE SCIENTIFIQUE, priority 2010, dated 2017).

The target in data set [1] is T1, Bacillus pumilus bilirubin oxidase (BOD), wild type, strain SAFR-032, SEQ ID No. 2 (C-terminal 6xHis tag) (Bacillus pumilus, UniProt A8FAG9).
T1 sequence (A8FAG9 with tags, fused parts or gaps): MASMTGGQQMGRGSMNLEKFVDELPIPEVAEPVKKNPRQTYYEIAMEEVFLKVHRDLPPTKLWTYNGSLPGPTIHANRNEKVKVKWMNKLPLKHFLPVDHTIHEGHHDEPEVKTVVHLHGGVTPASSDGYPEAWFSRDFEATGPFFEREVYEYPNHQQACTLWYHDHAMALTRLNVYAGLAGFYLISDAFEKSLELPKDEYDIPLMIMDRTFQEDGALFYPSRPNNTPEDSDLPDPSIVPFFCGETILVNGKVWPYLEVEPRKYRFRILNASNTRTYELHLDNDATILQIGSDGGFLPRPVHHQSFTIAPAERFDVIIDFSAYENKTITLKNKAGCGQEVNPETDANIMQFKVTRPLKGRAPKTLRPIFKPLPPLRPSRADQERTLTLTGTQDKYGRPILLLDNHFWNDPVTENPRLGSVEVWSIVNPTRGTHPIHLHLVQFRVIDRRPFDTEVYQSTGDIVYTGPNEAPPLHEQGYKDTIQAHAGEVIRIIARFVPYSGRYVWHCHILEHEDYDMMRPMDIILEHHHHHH
Nature of the data set: Steady-state kinetics of 2,6-dimethoxyphenol (DMP) oxidation by B. pumilus BOD. The note with it: 37° C., 50 mM sodium phosphate buffer, pH 6.8.
Description: (§3) The experiments are carried out at 37° C. on a Varian spectrophotometer in a 50 mM sodium phosphate buffer, pH 6.8. The 2,6-dimethoxyphenol concentration varies in the test from 0 to 4000 μM. The test, triggered by adding the enzyme, consists in following the oxidation of the DMP at 468 nm by coloroimetric change (ε468nm=14.8 mM^−1 cm^−1).

For data set [2], the target named is T1, Bacillus pumilus bilirubin oxidase (BOD), wild type, strain SAFR-032, SEQ ID No. 2 (C-terminal 6xHis tag). The experiment in a line: Steady-state kinetics of syringaldazine (SGZ) oxidation by B. pumilus BOD. In kind it is biochemical. The note with it: 37° C., 50 mM citrate/phosphate buffer, pH 6.2; model with competitive inhibition; in 1/s. The protocol:
(§1) The SGZ concentration, diluted in methanol, varies in the test from 0 to 300 μM.

For data set [3], the system named is Bacillus pumilus BOD. The experiment in a line: Activity as a function of the presence of DTT or EDTA (SGZ oxidation). It counts as biochemical. The note with it: SGZ 50 μM, 37° C., pH 6.2. The protocol: (§2) The concentration of SGZ, diluted in methanol, is fixed in the test at 50 μM. […] Table III below collates the results obtained, presented in relative activity form.

Data set [4] has as its target T1, Bacillus pumilus bilirubin oxidase (BOD), wild type, strain SAFR-032, SEQ ID No. 2 (C-terminal 6xHis tag). The experiment in a line: Activity (SGZ oxidation) as a function of the presence of DTT or of EDTA. In kind it is biochemical. To be noted: 50 μM SGZ, 37° C., pH 6.2, read-out: Relative activity. The protocol: as §2
Data set [5] relates to Bacillus pumilus BOD. The experiment in a line: Activity as a function of the presence of urea (ABTS oxidation). The note with it: urea 0 to 6 M, 100 mM citrate/phosphate buffer, pH 3.
Description: The experiments are carried out at 37° C. on a Varian spectrophotometer in a 0.1 M citrate/phosphate buffer, pH 3. […] The test is triggered by adding enzyme.
Data set [6] deals with T1, Bacillus pumilus bilirubin oxidase (BOD), wild type, strain SAFR-032, SEQ ID No. 2 (C-terminal 6xHis tag). The experiment in a line: Steady-state kinetics of conjugated bilirubin oxidation by B. pumilus BOD. In kind it is biochemical. To be noted: 37° C., 50 mM sodium phosphate buffer, pH 4.8.
Substrate in data set [7]: COc1cccc(OC)c1O
Nature of the data set: purified protein, by the assay type. The note with it: other: 37° C., 50 mM sodium phosphate buffer, pH 6.8.
Description: as §3

Substrate in data set [8]: C=CC1=C(C)/C(=C/c2[nH]c(Cc3[nH]c(/C=C4\NC(=O)C(C)=C4C=C)c(C)c3CCC(=O)O)c(CCC(=O)O)c2C)NC1=O
The experiment in a line: Steady-state kinetics of unconjugated bilirubin oxidation by B. pumilus BOD. It counts as biochemical, Bacillus pumilus. To be noted: other: 37° C., 50 mM sodium phosphate buffer, pH 7.

Substrate in data set [9]: COc1cc(/C=N/N=C/c2cc(OC)c(O)c(OC)c2)cc(OC)c1O
The experiment in a line: Steady-state kinetics of syringaldazine (SGZ) oxidation by B. pumilus BOD. The note with it: other: 37° C., 50 mM citrate/phosphate buffer, pH 6.2, model with competitive inhibition. In kind it is biochemical, Bacillus pumilus. The protocol: as §1

Data set [10] can be described thus: Remazol Brilliant Blue R (RBBR) discoloration activity. The note with it: RBBR 80 mg.l^−1, 37° C., 50 mM potassium phosphate buffer, pH 6, absence or presence of 10 μM ABTS. In kind it is biochemical. The protocol: The RBBR concentration is fixed at 80 mg.l^−1 in each tank. The test, triggered by adding 10 μg of enzyme, consists in following, over time, the discoloration of the RBBR dye at 593 nm.

A short description of data set [11]: Stability of the enzyme as a function of temperature. It counts as physicochemical. The note with it: incubation at 80° C., residual activity on ABTS. The protocol:
The enzyme is preincubated at a concentration of 10 mg/ml in a dry bath at 80° C. […] The test is triggered by adding enzyme.

Data set [12] can be described thus: Specific activity for ABTS. In kind it is biochemical. To be noted: BOD according to the invention. The protocol: The enzyme is diluted so as to measure a slope between 0.05 and 0.3 OD420nm/min.

`COc1cccc(OC)c1O` [DMP, 2,6-Dimethoxyphenol] displayed a kss in data set [1] of 57.3 s⁻¹.

Consider `COc1cc(/C=N/N=C/c2cc(OC)c(O)c(OC)c2)cc(OC)c1O` [SGZ, Syringaldazine], for which the kcat in data set [2] was found to be 116.1.

For the molecule `O=C(O)CN(CCN(CC(=O)O)CC(=O)O)CC(=O)O` [EDTA], the “Relative activity (%)” value came out at 97 ± 1% in the data set on Bacillus pumilus BOD [3] (EDTA 0.1 mM); 99 ± 5% in the data set on Bacillus pumilus BOD [3] (EDTA 1 mM); 95 ± 1% in the data set with Bacillus pumilus BOD [3] (EDTA 10 mM); 98 ± 3% in the data set on Bacillus pumilus BOD [3] (EDTA 25 mM); 99 ± 4% in the data set with Bacillus pumilus BOD [3] (EDTA 50 mM); 95 ± 2% in the data set with Bacillus pumilus BOD [3] (EDTA 75 mM). The “Relative activity (%)” value with Bacillus pumilus BOD [3] (EDTA 100 mM) is 95 ± 1%; in the data set on Bacillus pumilus BOD [3] (EDTA 125 mM), 89 ± 3%. The activity at 100 µM in [4] (EDTA 0.1 mM) was 97 ± 1%. Also, the activity at 1000 µM in [4] (EDTA 1 mM) was 99 ± 5%. The activity at 10000 µM in data set [4] (EDTA 10 mM) worked out at 95 ± 1%. Also, the activity at 25000 µM in data set [4] (EDTA 25 mM) stood at 98 ± 3%. Also, the activity at 50000 µM in [4] (EDTA 50 mM) was 99 ± 4%. The activity at 75000 µM in data set [4] (EDTA 75 mM) turned out to be 95 ± 2%. Further, in data set [4] (EDTA 100 mM), the activity at 100000 µM turned out to be 95 ± 1%. For the same molecule, the activity at 125000 µM in [4] (EDTA 125 mM) came to 89 ± 3%.

For the molecule `NC(N)=O` [urea], the “effect of urea on BOD activity (ABTS oxidation)” value in the data set on Bacillus pumilus BOD [5] (25° C.) is on record as “activating effect”; in the data set on Bacillus pumilus BOD [5] (37° C.), “not found”.

In the case of conjugated bilirubin, in data set [6], the Km (usually the concentration of substrate that gives half-maximal velocity) was 35.1 µM and the kcat turned out to be 66.8 s⁻¹.

As for `O[C@@H](CS)[C@@H](O)CS` [DTT], the “Relative activity (%)” value is on record as 99 ± 4% in the data set with Bacillus pumilus BOD [3] (DTT 0.001 mM); 93 ± 2% in the data set on Bacillus pumilus BOD [3] (DTT 0.005 mM); 93 ± 4% with Bacillus pumilus BOD [3] (DTT 0.01 mM); 94 ± 3% in the data set on Bacillus pumilus BOD [3] (DTT 0.015 mM); 85 ± 1% in the data set with Bacillus pumilus BOD [3] (DTT 0.03 mM); 81 ± 4% with Bacillus pumilus BOD [3] (DTT 0.05 mM).

As for `OC(CS)C(O)CS` (centres unmarked) [DTT], the activity at 1 µM in data set [4] (DTT 0.001 mM) is 99 ± 4%. Besides, in data set [4] (DTT 0.005 mM), the activity at 5 µM came out at 93 ± 2%. In data set [4] (DTT 0.01 mM), the activity at 10 µM stood at 93 ± 4%. For the same molecule, the activity at 15 µM in [4] (DTT 0.015 mM) worked out at 94 ± 3%. For the same molecule, the activity at 30 µM in data set [4] (DTT 0.03 mM) was 85 ± 1%. Further, the activity at 50 µM in data set [4] (DTT 0.05 mM) is 81 ± 4%.

B1: Bacillus pumilus bilirubin oxidase (BOD), wild type, strain SAFR-032, SEQ ID No. 2 (C-terminal 6xHis tag) (Bacillus pumilus SAFR-032) (protein)
chain: T1 sequence (A8FAG9 with tags, fused parts or gaps)
As for B1, the Km in data set [7] was determined as 822 µM; in data set [8], 22 µM; in data set [9], 45.6 µM. Moreover, the kcat in [8] came to 70 s⁻¹.

B2: Bacillus pumilus BOD: wild-type bilirubin oxidase of Bacillus pumilus strain SAFR032, SEQ ID No. 2, produced in E. coli with C-terminal 6HIS tag (protein, listed as Bacillus pumilus)
chain: T1 sequence (A8FAG9 with tags, fused parts or gaps)
modifications: C-terminal 6His tag
For B2, in data set [10], the “discolouring activity on dyes used in the textile industry” value was “discolouring activity”. Besides, in [11], the heat stability result was “very good heat stability”. In data set [12], the “specific activity for ABTS” value is given as 375 U/mg.
